Results taken from the METLIN SMRT retention time set (Domingo-Almenara et al. 2019).

Assay: gradient 5% acetonitrile 3 min, to 50% in 2 min, to 85% in 15 min, held 3 min, 100 µL/min
Conditions: column: Zorbax Extend-C18 2.1 x 50 mm; eluents: water / acetonitrile, 0.1% formic acid
How it was run: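 Using water and acetonitrile that each contained 0.1% formic acid, mixtures of ~100 pure standards were separated at 100 μL/min on a Zorbax Extend-C18 column (2.1 × 50 mm, 1.8 μm). The HPLC fed a quadrupole time-of-flight mass spectrometer working in positive and negative ionization mode, with dead and dwell volumes of 40 μL and 900 μL. Data were acquired over 3 months. Retention time was read from computationally picked adduct peaks after manual inspection of each.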

RP-LC retention time [s] | Compound
819 | Cc1cc(NC(=O)c2ccc3c(c2)nnn3Cc2ccccc2)no1
601 | Cc1cc(=O)n2c3c(c4c(cc13)c(CN(C)C)cc(=O)n4C)OC2
874 | NS(=O)(=O)c1ccc(CCNS(=O)(=O)c2ccc(-c3cc(C(F)(F)F)on3)o2)cc1
894 | Fc1ccc(CN2CCO[C@@H](COc3ccccn3)[C@@H]2c2ccccc2)c(F)c1
717 | CC(C)c1nc(C2CN(C(=O)Nc3cc(F)cc(F)c3)C2)n(C)n1
669 | O=C(NCc1ccc(F)cc1)N1CCCC(Cn2c(C3CC3)nc3cccnc32)C1 (stereo not drawn)
690 | Cc1ccn2cc(-c3ccc(NS(=O)(=O)c4ccc5ccccc5c4)cc3)nc2n1
1080 | O=c1ccn(-c2ccc(Cl)cc2)nc1-c1nc(-c2ccc(F)c(Br)c2)no1
1020 | COc1ccc2cccc(NC(=O)c3ccsc3)c2n1
676 | Cn1c(C2CCN(C(=O)Nc3ccc(Cl)cc3)CC2)cc(=O)n2nccc12
857 | O=C(Nc1ccc2c(c1)N(C(=O)c1cccs1)CC2)c1c(F)cccc1Cl
888 | O=S(=O)(Nc1ccc(F)cc1)c1ccc(-c2nnc(C3CCC3)o2)o1
690 | CC(C)OCCCNC(=O)C1CC(=O)N(c2n[nH]c3cc(Br)ccc23)C1 (stereo not drawn)
997 | CCCS(=O)(=O)N1CCCC(Cn2cc(COc3ccc4c(c3)CCC4)nn2)C1 (stereo not drawn)
983 | Cc1nc2cc(-c3noc(Cc4ccc(F)cc4)n3)ccc2o1
571 | CCCNC(=O)Cn1c(C)nc2ccccc21
593 | Cc1cnc(C(=O)NCC2CCCCC(=O)N2)cn1 (stereo not drawn)
639 | CC(NC(=O)C1=CCN(Cc2ccccc2)CC1)c1ccccc1 (stereo not drawn)
761 | COc1ccccc1N1CCN(C(=O)CCc2c(C)n(C)c3nc(-c4ccccc4)nn3c2=O)CC1

RP-LC retention time [s] | Compound
697 | COc1ccc(NC(=O)Cn2c(C)cc(-c3nnc(C4CCC4)o3)c2C)cc1F
947 | COc1ccc(OC)c(-c2nnc(NC(=O)CSc3ccc(Cl)cc3)s2)c1
647 | CCCNC(=O)c1cc(=O)[nH]c2c(C)cccc12
1010 | O=S(=O)(c1ccc(-c2nnc(C3CCCC3)o2)o1)N1CCCCC1
687 | CCOC(=O)N1CCN(S(=O)(=O)c2ccc(C(=O)Nc3cc(C)nn3C)cc2)CC1
774 | COc1ccc(NC(=O)C2CCN(S(=O)(=O)c3ccc4[nH]c(=O)sc4c3)CC2)c(OC)c1
676 | COCCNC(=O)C(=O)NCC1(c2ccc(F)cc2)CCOCC1
935 | COc1ccc(-c2nn3c(-c4ccccc4F)nnc3s2)cc1
707 | COCc1nc2ccccc2n1CC(=O)N(c1ccccc1)C(C)C
540 | O=C(NCc1cccnc1)C1(c2ccccc2)CCOCC1
1260 | CCc1ccc(S(=O)(=O)N2CCCC2c2nc(-c3cccc(C)c3)no2)cc1 (stereo not drawn)
692 | O=C1NCCCCCN(C(=O)c2ccsc2)[C@H]2CCC[C@@H]12
1230 | CCOc1ccc(S(=O)(=O)N2CCCC2c2nc(-c3ccc(Cl)cc3)no2)cc1 (stereo not drawn)
672 | CCn1cc(CN2CCC(C(=O)NC(C)CCc3ccccc3)CC2)c2cc(Cl)ccc21 (stereo not drawn)
740 | O=C(Nc1ccc(Br)cc1)Nc1ccc2nc3n(c(=O)c2c1)CCCC3
646 | O=c1n(Cc2ccccc2)nc2n1CCN(S(=O)(=O)c1cnc[nH]1)CC2
1180 | CCN(C(=O)CCCC(=O)OC)c1nc(-c2ccc(C)cc2)cs1
1060 | O=S(=O)(Nc1ccc(F)cc1)c1cccnc1Nc1cccc(F)c1
796 | Cc1ccc(C)c(NC(=O)Cn2c(C)cc(-c3nnc(C)o3)c2C)c1
